Key:
Geotrichum candidum = assay: in vitro control of Geotrichum candidum on PDA medium (colony diameter in microtitre plate wells); format: cell-based; conditions: 60 ppm in PDA medium; for Radial growth of the fungus (mm): 22° C., untreated control 15 mm; for Efficacy (%): colony diameter versus untreated control
Experimental: This example gives an illustration of the efficacy of a composition according to the invention for controlling Geotrichum candidum, this trial was carried out in vitro. The fungicidal compositions are used in solution at the doses detailed in Table 1. […] 1 day later, a microdrop of an aqueous suspension of Geotrichum candidum spores, supplemented with 400 ppm of Tween 20, is brought to the surface of each well of the microtitre plate. The cultures are then incubated at 22° C., 60% relative humidity, under subdued light until the control culture (without fungicide) has covered the entire surface of the well. The diameter of each colony is then measured and, in comparison with the untreated control, a percentage efficacy is calculated using the following formula: (diameter of the control−diameter of the trial)/diameter of the control×100.

Gloeosporium spp. = assay: in vivo trial combating Gloeosporium spp. on apples (Golden variety, preventive sprinkling)
Experimental: This example proposes to give an illustration of the efficacy of a composition according to the invention for combating Gloeosporium spp. on apples, this trial was carried out in vivo. The fungicidal compositions are used in solution at the doses detailed in Table 2. Apples of the Golden variety, untreated after harvest, are treated by sprinkling a fungicidal solution up to the run-off limit at the doses described in Table 2 of results (8 apples per product). 6 hours later, the fruit are inoculated by sprinkling an aqueous suspension at 150 000 spores/ml of Gloeosporium spp. obtained from a preculture on PDA medium. This inoculation by sprinkling is carried out up to the run-off limit. The fruit are then stored in the dark at 20° C., 100% relative humidity and the scores for the disease start 3 weeks later, for a period of 2 weeks. The number of fruit affected by rot are counted and, in comparison with the untreated control, a percentage efficacy is calculated using the following formula: […].

SMILES | Radial growth of the fungus (mm) (Geotrichum candidum) | Efficacy (%) (Geotrichum candidum) | Efficacy (%) (Gloeosporium spp.; 375 ppm, sprinkled on Golden apples 6 hours before inoculation, rot versus untreated control) | Efficacy (%) (Gloeosporium spp.; 75 ppm)
C=CCOC(Cn1ccnc1)c1ccc(Cl)cc1Cl (stereo not drawn) [Imazalil, imazalil] | 14 | 7 | −29.2 | –
Cc1cc(C)nc(Nc2ccccc2)n1 [Pyrimethanil, pyrimethanil] | 15 | 0 | – | 14.9
